{"source": "patent US20070280915A1", "about": "“Combination Therapies Employing A Composition Comprising A Hmg Coa Reductase Inhibitor And A Vitamin B6 Related Compound” (priority 2003, published 2007)", "key": {"CYP2A6": {"biological_target": "T1, CYP2A6 (Homo sapiens, UniProt P11509)", "T1 sequence (P11509 1-494)": "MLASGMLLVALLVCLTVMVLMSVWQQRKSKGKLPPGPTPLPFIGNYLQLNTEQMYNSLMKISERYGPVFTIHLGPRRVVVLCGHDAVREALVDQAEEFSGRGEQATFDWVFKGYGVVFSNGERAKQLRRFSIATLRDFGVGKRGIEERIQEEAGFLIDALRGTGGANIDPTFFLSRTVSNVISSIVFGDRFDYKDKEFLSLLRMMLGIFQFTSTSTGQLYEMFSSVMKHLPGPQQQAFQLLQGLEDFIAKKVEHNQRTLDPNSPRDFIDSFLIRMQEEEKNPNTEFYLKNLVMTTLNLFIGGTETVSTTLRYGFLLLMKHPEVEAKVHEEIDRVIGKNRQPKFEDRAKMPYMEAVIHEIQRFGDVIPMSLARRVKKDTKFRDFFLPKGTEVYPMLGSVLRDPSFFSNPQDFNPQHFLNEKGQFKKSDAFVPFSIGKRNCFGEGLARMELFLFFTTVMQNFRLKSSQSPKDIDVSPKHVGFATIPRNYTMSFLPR", "experiment": "CYP2A6 inhibition assay (substrate coumarin)", "conditions": "0.0169 to […] tested, na = concentration-dependent inhibition not observed", "excerpt": "(§1) The CYP inhibition assays used microsomes (Supersomes®, Gentest Corp., Woburn, Mass.) prepared from insect cells, each expressing an individual CYP subtype (CYP1A2, CYP2A6, CYP2B6, CYP2C8, CYP2C9, CYP2C19, CYP2D6, CYP2E1 or CYP3A4) expressed from the corresponding human CYP cDNA using a baculovirus expression vector. The microsomes also incorporated supplemental cDNA-expressed human reductase and/or cytochrome b5, as these enzymes stimulate the activity of the CYPs, allowing for a reduction in the amount of enzyme required per reaction (Gentest Corp.). The assays monitored, via fluorescence detection, the formation of a fluorescent metabolite following incubation of the microsomes with a specific CYP substrate. […] Reactions (0.2 mL) were performed in 96-well microtitre plates at 37° C. in the presence of an NADPH regenerating system [NADP+, glucose-6-phosphate (G6P), glucose-6-phosphate dehydrogenase (G6PDH)] and MgCl2. […] All determinations were performed in duplicate. The reagent solutions used for all of the CYP subtype assays, except CYP2C19 and CYP3A4, were prepared by MBDI. For CYP2C19 and CYP3A4, complete reagent kits purchased from Gentest Corp. (CYP2C19/CEC: Cat. No. HTS-4000, Lot No. 1; CYP3A4/BFC: Cat. No. HTS-1000, Lot No. 1) were used to perform the assays.\n(§2) Eight inhibitor and test compound concentrations were tested using 3-fold serial dilutions. The microtitre plates containing 0.1 mL/well of the latter mixture were pre-warmed to 37° C. in an incubator. […] The amount of metabolic product formed was quantified by fluorescence detection in a fluorescence plate reader utilizing excitation and emission filters that had been optimized for the detection of each metabolite.\n(§3) Data Analysis—The mean of the duplicate fluorescent signals in the presence and absence (vehicle control) of each compound was calculated and corrected for the background noise. Percent inhibition was calculated as the difference in the corrected fluorescent signals in the absence and presence of the compound, divided by the corrected fluorescent signal in the absence of compound, multiplied by 100%."}, "CYP2B6": {"biological_target": "T2, CYP2B6 (Homo sapiens, UniProt P20813)", "T2 sequence (P20813 1-491)": "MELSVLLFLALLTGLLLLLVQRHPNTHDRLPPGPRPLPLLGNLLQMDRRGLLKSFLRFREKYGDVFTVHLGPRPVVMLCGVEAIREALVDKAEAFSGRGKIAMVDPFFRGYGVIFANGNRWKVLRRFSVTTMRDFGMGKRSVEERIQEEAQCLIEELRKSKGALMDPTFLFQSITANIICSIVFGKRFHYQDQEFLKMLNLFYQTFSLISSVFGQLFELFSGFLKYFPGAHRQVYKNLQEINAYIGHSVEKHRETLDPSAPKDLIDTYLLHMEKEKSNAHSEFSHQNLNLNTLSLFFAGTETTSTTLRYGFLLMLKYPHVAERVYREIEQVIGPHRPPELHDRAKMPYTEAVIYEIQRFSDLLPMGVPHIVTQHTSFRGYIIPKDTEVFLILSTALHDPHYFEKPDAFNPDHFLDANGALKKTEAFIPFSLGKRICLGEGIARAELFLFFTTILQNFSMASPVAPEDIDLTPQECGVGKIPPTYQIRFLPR", "experiment": "CYP2B6 inhibition assay (substrate EFC)", "conditions": "0.0169 to […] tested, na = concentration-dependent inhibition not observed", "excerpt": "as §1, §2, §3"}, "[1]": {"experiment": "Effect of pyridoxal 5′-phosphate on fluorescence of the metabolic products of the CYP assays", "method": "Prior to performing the CYP inhibition assays, the effect of pyridoxal 5′-phosphate on the fluorescence of the metabolic products measured in the assays was evaluated. The fluorescence of metabolite (one concentration, in duplicate) was measured in the absence (0 μM) and presence of 0.457 to 1000 μM pyridoxal 5′-phosphate. The concentrations and metabolic products measured were: 1 μM 3-cyano-7-hydroxycoumarin (CHC), 2.5 μM 7-hydroxycoumarin (7-HC), 2.5 μM 7-hydroxy-4-trifluoromethylcoumarin (HFC), 0.1 μM fluorescein, 10 μM 3-[2-(N,N-diethylamino)ethyl]-7-hydroxy-4-methylcoumarin (AHMC) and 10 μM quinolinol. The concentration of metabolite used was based on the expected maximum concentration of metabolite formed in the CYP inhibition assay (i.e. the concentration of metabolite measured following incubation substrate with the CYP subtype in the absence of an inhibitor). CHC is the fluorescent metabolite measured in the CYP1A2 and CYP2C19 assays. 7-HC is the fluorescent metabolite measured in the CYP2A6 assay, HFC is the fluorescent metabolite measured in the CYP2B6, CYP2C9, CYP2E1 and CYP3A4 (BFC as substrate) assays and fluorescein is the metabolite measured in the CYP2C8 assay. AHMC is the metabolite measured in the CYP2D6 assay and quinolinol is measured in the CYP3A4 (BQ as substrate) assay. […]"}}}
{"smiles": "Cc1ncc(COP(=O)(O)O)c(C=O)c1O", "note": "[P5P, pyridoxal-5-phosphate]", "values": [{"measurement": "Pyridoxal 5′-phosphate IC50", "setting": "CYP2A6", "result": "did not inhibit"}, {"measurement": "Pyridoxal 5′-phosphate IC50", "setting": "CYP2B6", "result": "did not inhibit"}, {"measurement": "concentration at which fluorescence of metabolites was significantly quenched", "setting": "[1]; metabolites CHC, 7-HC, 7-HFC, AHMC and quinolinol, 0.457 to 1000 μM tested", "result": "> 37", "unit": "µM"}, {"measurement": "effect on the fluorescence of fluorescein", "setting": "[1]; up to 1000 μM, fluorescein is the CYP2C8 assay product", "result": "did not affect"}]}
